*1 amine or outer side, *2 acyl side, *3 side chain or, on linkers, in order; H or OH if unused. Where a SMILES comes first, the peptide text is derived from it. [ ]: non-standard residue; d: D form. The star is where a group is joined. NMeAbu(4-morpholino) = CN[C@@H](CCN1CCOCC1)C(=O)O; X1 = CN([C@@H](CCN1CCCCC1)C(=O)[*:2])[*:1]; NMeW = CN[C@@H](Cc1c[nH]c2ccccc12)C(=O)O; NMeY = CN[C@@H](Cc1ccc(O)cc1)C(=O)O; NMeCha = CN[C@@H](CC1CCCCC1)C(=O)O; NMeLys(Me) = CNCCCC[C@H](NC)C(=O)O; NMeF = CN[C@@H](Cc1ccccc1)C(=O)O; NMeI = CC[C@H](C)[C@H](NC)C(=O)O; NMeT = CN[C@H](C(=O)O)[C@@H](C)O; NMeD = CN[C@@H](CC(=O)O)C(=O)O; dNMeL = CN[C@H](CC(C)C)C(=O)O; NMeK = CN[C@@H](CCCCN)C(=O)O; NMeS = CN[C@@H](CO)C(=O)O; Morpholide = C1CN(*)CCO1; NMeA = CN[C@@H](C)C(=O)O; Piperidide = C1CCN(*)CC1
Columns and labels:
[1] = RRCK permeability; conditions: MDCK; for Papp A→B: dog
[2] = tested on: RRCK (Ralph Russ canine kidney cell line); test: RRCK permeability; conditions: MDCK
[3] = rat; cited from earlier work
[4] = tested on: Caco-2; conditions: cited from earlier work
[5] = rat intestinal S-9 fraction and rat brush border membrane vesicles

Row | Compound | recovery [1] [%] | log Papp(RRCK) [2] | other results
1 | CC(C)C[C@@H]1NC(=O)[C@H](Cc2ccc(O)cc2)N(C)C(=O)[C@H]2CCCN2C(=O)[C@H](CC(C)C)NC(=O)[C@H](CCN2CCOCC2)N(C)C(=O)[C@@H](CC(C)C)N(C)C1=O [Compound 15] (cyclo(L[dNMeL][NMeAbu(4-morpholino)]L[dP][NMeY])) | 48.7 | −5.92 | 
2 | CC(C)C[C@@H]1NC(=O)[C@H](Cc2ccc(O)cc2)N(C)C(=O)[C@H]2CCCN2C(=O)[C@H](CC(C)C)NC(=O)[C@H](Cc2c[nH]c3ccccc23)N(C)C(=O)[C@@H](CC(C)C)N(C)C1=O [Compound 8] (cyclo(L[dNMeL][NMeW]L[dP][NMeY])) | 37.1 | −6.66 | 
3 | CC(C)C[C@@H]1NC(=O)[C@H](Cc2ccc(O)cc2)N(C)C(=O)[C@H]2CCCN2C(=O)[C@H](CC(C)C)NC(=O)[C@H](CC2CCCCC2)N(C)C(=O)[C@@H](CC(C)C)N(C)C1=O [Compound 12] (cyclo(L[dNMeL][NMeCha]L[dP][NMeY])) | 12.2 | −6.74 | 
4 | CC(C)C[C@@H]1NC(=O)[C@H](Cc2ccc(O)cc2)N(C)C(=O)[C@H]2CCCN2C(=O)[C@H](CC(C)C)NC(=O)[C@H](CC(=O)N2CCCCC2)N(C)C(=O)[C@@H](CC(C)C)N(C)C1=O [Compound 14] (cyclo(L[dNMeL][NMeD](Piperidide)L[dP][NMeY])) | 45.6 | −5.84 | 
5 | cyclo-[LPro-LPhe-DTrp(NMe)-LLys(NMe)-LThr-LPhe(NMe)] [Kessler peptide] |  |  | oral bioavailability [3]: 10%; Caco-2 permeability [4]: good
6 | CC(C)C[C@@H]1NC(=O)[C@H](Cc2ccc(O)cc2)N(C)C(=O)[C@H]2CCCN2C(=O)[C@H](CC(C)C)NC(=O)[C@H](CC(=O)N2CCOCC2)N(C)C(=O)[C@@H](CC(C)C)N(C)C1=O [Compound 16] (cyclo(L[dNMeL][NMeD](Morpholide)L[dP][NMeY])) | 47.9 | −6.20 | 
7 | CC(C)C[C@@H]1NC(=O)[C@H](Cc2ccc(O)cc2)N(C)C(=O)[C@H]2CCCN2C(=O)[C@H](CC(C)C)NC(=O)[C@H](Cc2ccccc2)N(C)C(=O)[C@@H](CC(C)C)N(C)C1=O [Compound 7] (cyclo(L[dNMeL][NMeF]L[dP][NMeY])) | 59.8 | −5.24 | 
8 | CC(C)C[C@@H]1NC(=O)[C@H](Cc2ccc(O)cc2)N(C)C(=O)[C@H]2CCCN2C(=O)[C@H](CC(C)C)NC(=O)[C@H](CC(=O)O)N(C)C(=O)[C@@H](CC(C)C)N(C)C1=O [Compound 9] (cyclo(L[dNMeL][NMeD]L[dP][NMeY])) | 74.8 |  | Papp A→B [1]: 0.457 ×10⁻⁶ cm/s
9 | CC(C)C[C@@H]1NC(=O)[C@H](Cc2ccc(O)cc2)N(C)C(=O)[C@H]2CCCN2C(=O)[C@H](CC(C)C)NC(=O)[C@H](CCCCN)N(C)C(=O)[C@@H](CC(C)C)N(C)C1=O [Compound 10] (cyclo(L[dNMeL][NMeK]L[dP][NMeY])) | 56.5 | −6.56 | 
10 | CC(C)C[C@@H]1NC(=O)[C@H](Cc2ccc(O)cc2)N(C)C(=O)[C@H]2CCCN2C(=O)[C@H](CC(C)C)NC(=O)[C@H](CO)N(C)C(=O)[C@@H](CC(C)C)N(C)C1=O [Compound 2] (cyclo(L[dNMeL][NMeS]L[dP][NMeY])) | 84.3 | −5.81 | stability towards oxidative or proteolytic degradation [5]: stable
11 | CNCCCC[C@H]1C(=O)N[C@@H](CC(C)C)C(=O)N2CCC[C@@H]2C(=O)N(C)[C@@H](Cc2ccc(O)cc2)C(=O)N[C@@H](CC(C)C)C(=O)N(C)[C@H](CC(C)C)C(=O)N1C [Compound 11] (cyclo(L[dNMeL][NMeLys(Me)]L[dP][NMeY])) | 59.7 |  | Papp A→B [1]: 0.234 ×10⁻⁶ cm/s
12 | CC(C)C[C@@H]1NC(=O)[C@H](Cc2ccc(O)cc2)N(C)C(=O)[C@H]2CCCN2C(=O)[C@H](CC(C)C)NC(=O)[C@H](CCN2CCCCC2)N(C)C(=O)[C@@H](CC(C)C)N(C)C1=O [Compound 13] (cyclo(L[dNMeL][X1]L[dP][NMeY])) | 47.9 | −6.15 | 
13 | CC(C)C[C@@H]1NC(=O)[C@H](Cc2ccc(O)cc2)N(C)C(=O)[C@H]2CCCN2C(=O)[C@H](CC(C)C)NC(=O)[C@H](Cc2ccc(O)cc2)N(C)C(=O)[C@@H](CC(C)C)N(C)C1=O [Compound 6] (cyclo(L[dNMeL][NMeY]L[dP][NMeY])) | 72.6 | −5.88 | 
14 | CC(C)C[C@@H]1NC(=O)[C@H](Cc2ccc(O)cc2)N(C)C(=O)[C@H]2CCCN2C(=O)[C@H](CC(C)C)NC(=O)[C@H](C)N(C)C(=O)[C@@H](CC(C)C)N(C)C1=O [Compound 5] (cyclo(L[dNMeL][NMeA]L[dP][NMeY])) | 47.1 | −5.26 | 
15 | CC[C@H](C)[C@H]1C(=O)N[C@@H](CC(C)C)C(=O)N2CCC[C@@H]2C(=O)N(C)[C@@H](Cc2ccc(O)cc2)C(=O)N[C@@H](CC(C)C)C(=O)N(C)[C@H](CC(C)C)C(=O)N1C [Compound 4] (cyclo(L[dNMeL][NMeI]L[dP][NMeY])) | 39.7 |  | 
16 | CC(C)C[C@@H]1NC(=O)[C@H](Cc2ccc(O)cc2)N(C)C(=O)[C@H]2CCCN2C(=O)[C@H](CC(C)C)NC(=O)[C@H]([C@@H](C)O)N(C)C(=O)[C@@H](CC(C)C)N(C)C1=O [Compound 3] (cyclo(L[dNMeL][NMeT]L[dP][NMeY])) |  | −5.33 | 

From article PMC3488302 (MedChemComm, 2012)
